Results as given in ChEMBL document CHEMBL1201862, “PubChem BioAssay data set” (2004).
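Step 1: Grow cells in 96-well plates. Step 2: Expose to compound for 48 hours at 5 concentrations. Step 3: Interpolate endpoints linearly; if unreached, use highest concentration. GI50 is the concentration that inhibits growth by half.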 Active and inactive are the calls of the source. No stated cut-off is given here; in the data, active = GI50 up to about 1.1 µM and inactive = higher.

What was measured:
Experiment in all cases: DTP human tumour cell line panel, 48 h
NCI-H522 = tested on: NCI-H522
HL-60 = tested on: HL-60
M14 = tested on: M14
IGROV-1 = tested on: IGROV-1
OVCAR-8 = tested on: OVCAR-8
KM12 = tested on: KM12
786-0 = tested on: 786-0
SR = tested on: SR
DU-145 = tested on: DU-145
NCI-H460 = tested on: NCI-H460
LOX IMVI = tested on: LOX IMVI
A549 = tested on: A549
SK-MEL-2 = tested on: SK-MEL-2
Malme-3M = tested on: Malme-3M
RPMI-8226 = tested on: RPMI-8226
SNB-75 = tested on: SNB-75
HCT-116 = tested on: HCT-116
SNB-19 = tested on: SNB-19
CCRF-CEM = tested on: CCRF-CEM
HOP-62 = tested on: HOP-62
HCT-15 = tested on: HCT-15
UACC-257 = tested on: UACC-257
Hs-578T = tested on: Hs-578T
A498 = tested on: A498
K562 = tested on: K562
COLO 205 = tested on: COLO 205
PC-3 = tested on: PC-3
MDA-MB-435 = tested on: MDA-MB-435
BT-549 = tested on: BT-549
HCC 2998 = tested on: HCC 2998
SK-OV-3 = tested on: SK-OV-3
NCI-H23 = tested on: NCI-H23
EKVX = tested on: EKVX
UO-31 = tested on: UO-31
T47D = tested on: T47D
U-251 = tested on: U-251
SF-539 = tested on: SF-539
SK-MEL-28 = tested on: SK-MEL-28
MDA-N = tested on: MDA-N
MDA-MB-231 = tested on: MDA-MB-231
OVCAR-3 = tested on: OVCAR-3
MCF7 = tested on: MCF7
OVCAR-5 = tested on: OVCAR-5
NCI/ADR-RES = tested on: NCI/ADR-RES
SN12C = tested on: SN12C
SW-620 = tested on: SW-620
SF-268 = tested on: SF-268
TK-10 = tested on: TK-10
CAKI-1 = tested on: CAKI-1
SK-MEL-5 = tested on: SK-MEL-5
UACC-62 = tested on: UACC-62
MOLT-4 = tested on: MOLT-4
ACHN = tested on: ACHN
SF-295 = tested on: SF-295
NCI-H226 = tested on: NCI-H226
HT-29 = tested on: HT-29
OVCAR-4 = tested on: OVCAR-4
RXF 393 = tested on: RXF 393

Structure (SMILES): N#Cc1cc2c(cc1C#N)/C(=N\c1cccc(N)n1)N/C2=N\c1cccc(N)n1
- GI50 (NCI-H522): 9.38 µM (inactive)
- GI50 (HL-60): 19.1 µM (inactive)
- GI50 (M14): 17.5 µM (inactive)
- GI50 (IGROV-1): 20.7 µM (inactive)
- GI50 (OVCAR-8): 23.6 µM (inactive)
- GI50 (KM12): 36.8 µM (inactive)
- GI50 (786-0): 12.9 µM (inactive)
- GI50 (SR): 4.85 µM (inactive)
- GI50 (DU-145): > 100 µM (inactive)
- GI50 (NCI-H460): 22.4 µM (inactive)
- GI50 (LOX IMVI): 18.8 µM (inactive)
- GI50 (A549): 40.8 µM (inactive)
- GI50 (SK-MEL-2): 21.6 µM (inactive)
- GI50 (Malme-3M): 14.3 µM (inactive)
- GI50 (RPMI-8226): 32.7 µM (inactive)
- GI50 (SNB-75): 15.6 µM (inactive)
- GI50 (HCT-116): 11.1 µM (inactive)
- GI50 (SNB-19): 70 µM (inactive)
- GI50 (CCRF-CEM): 4.74 µM (inactive)
- GI50 (HOP-62): 24.3 µM (inactive)
- GI50 (HCT-15): 16.3 µM
- GI50 (UACC-257): 28.1 µM (inactive)
- GI50 (Hs-578T): 18.5 µM (inactive)
- GI50 (A498): > 10 µM (inactive)
- GI50 (K562): 13.4 µM (inactive)
- GI50 (COLO 205): 15 µM (inactive)
- GI50 (PC-3): 17.9 µM (inactive)
- GI50 (MDA-MB-435): 19.1 µM (inactive)
- GI50 (BT-549): 32.2 µM (inactive)
- GI50 (HCC 2998): 20.5 µM (inactive)
- GI50 (SK-OV-3): 13.7 µM (inactive)
- GI50 (NCI-H23): 16.1 µM (inactive)
- GI50 (EKVX): > 100 µM (inactive)
- GI50 (UO-31): 15.7 µM (inactive)
- GI50 (T47D): 21.8 µM (inactive)
- GI50 (U-251): 32.5 µM (inactive)
- GI50 (SF-539): 6.75 µM (inactive)
- GI50 (SK-MEL-28): 18.8 µM (inactive)
- GI50 (MDA-N): 20.3 µM (inactive)
- GI50 (MDA-MB-231): 15.2 µM (inactive)
- GI50 (OVCAR-3): 29.5 µM (inactive)
- GI50 (MCF7): 18.6 µM (inactive)
- GI50 (OVCAR-5): > 100 µM (inactive)
- GI50 (NCI/ADR-RES): 19.2 µM (inactive)
- GI50 (SN12C): 32.9 µM (inactive)
- GI50 (SW-620): 11.4 µM (inactive)
- GI50 (SF-268): 15.1 µM (inactive)
- GI50 (TK-10): 19.3 µM (inactive)
- GI50 (CAKI-1): 15.8 µM (inactive)
- GI50 (SK-MEL-5): 7.16 µM (inactive)
- GI50 (UACC-62): 15.2 µM (inactive)
- GI50 (MOLT-4): 3.78 µM (inactive)
- GI50 (ACHN): 20.4 µM (inactive)
- GI50 (SF-295): 21.3 µM (inactive)
- GI50 (NCI-H226): > 100 µM (inactive)
- GI50 (HT-29): 23.1 µM (inactive)

Structure (SMILES): COC(O)C(=O)c1ccc2c(c1)CC1(C2)Cc2cc3c(cc2C1=O)CCC3 (stereo not given)
- GI50 (NCI-H522): 19 µM (inactive)
- GI50 (HL-60): 9.33 µM (inactive)
- GI50 (M14): 19.3 µM (inactive)
- GI50 (IGROV-1): 16.1 µM (inactive)
- GI50 (OVCAR-8): > 10 µM (inactive)
- GI50 (KM12): 20.9 µM (inactive)
- GI50 (786-0): 17.6 µM (inactive)
- GI50 (SR): > 10 µM (inactive)
- GI50 (DU-145): 17.1 µM (inactive)
- GI50 (NCI-H460): 27.9 µM (inactive)
- GI50 (LOX IMVI): 2.69 µM (inactive)
- GI50 (A549): 20.2 µM (inactive)
- GI50 (SK-MEL-2): 23.2 µM (inactive)
- GI50 (Malme-3M): 16.2 µM (inactive)
- GI50 (RPMI-8226): 12.3 µM (inactive)
- GI50 (SNB-75): 17.9 µM (inactive)
- GI50 (HCT-116): 18.9 µM (inactive)
- GI50 (SNB-19): 18.2 µM (inactive)
- GI50 (CCRF-CEM): 11.9 µM (inactive)
- GI50 (HOP-62): 19.5 µM (inactive)
- GI50 (HCT-15): 22.2 µM
- GI50 (UACC-257): 21.4 µM (inactive)
- GI50 (Hs-578T): 20.5 µM (inactive)
- GI50 (A498): 18.7 µM (inactive)
- GI50 (K562): 2.94 µM (inactive)
- GI50 (COLO 205): 20 µM (inactive)
- GI50 (PC-3): 14.9 µM (inactive)
- GI50 (MDA-MB-435): 17.1 µM (inactive)
- GI50 (BT-549): 17.4 µM (inactive)
- GI50 (HCC 2998): 19.1 µM (inactive)
- GI50 (SK-OV-3): 16.7 µM (inactive)
- GI50 (NCI-H23): 24.5 µM (inactive)
- GI50 (EKVX): 19.2 µM (inactive)
- GI50 (OVCAR-4): 16.1 µM (inactive)
- GI50 (UO-31): 16.9 µM (inactive)
- GI50 (T47D): 19.2 µM (inactive)
- GI50 (U-251): 18.4 µM (inactive)
- GI50 (SF-539): 18.1 µM (inactive)
- GI50 (SK-MEL-28): 15.1 µM (inactive)
- GI50 (MDA-N): 19.9 µM (inactive)
- GI50 (MDA-MB-231): 27.7 µM (inactive)
- GI50 (OVCAR-3): 18.9 µM (inactive)
- GI50 (MCF7): 17.3 µM (inactive)
- GI50 (OVCAR-5): 22 µM (inactive)
- GI50 (NCI/ADR-RES): 42.6 µM (inactive)
- GI50 (SN12C): 15.3 µM (inactive)
- GI50 (SW-620): 14.5 µM (inactive)
- GI50 (SF-268): 19.4 µM (inactive)
- GI50 (TK-10): 21.6 µM (inactive)
- GI50 (CAKI-1): 16.9 µM (inactive)
- GI50 (SK-MEL-5): 16 µM (inactive)
- GI50 (UACC-62): 17.9 µM (inactive)
- GI50 (MOLT-4): 15 µM (inactive)
- GI50 (ACHN): 17 µM (inactive)
- GI50 (SF-295): 23.7 µM (inactive)
- GI50 (NCI-H226): 19.5 µM (inactive)
- GI50 (HT-29): 20.1 µM (inactive)

Structure (SMILES): CC(C)=C1C(=O)C[C@@]2(C)C[C@H]3OC3(C)CC/C=C(/C)CCC12 (stereo not given in full)
- GI50 (NCI-H522): 27.8 µM (inactive)
- GI50 (HL-60): 21.8 µM (inactive)
- GI50 (SR): 70.6 µM (inactive)
- GI50 (DU-145): > 100 µM (inactive)
- GI50 (NCI-H460): 62.4 µM (inactive)
- GI50 (A549): 75.2 µM (inactive)
- GI50 (Malme-3M): > 100 µM (inactive)
- GI50 (SNB-75): 80 µM (inactive)
- GI50 (HCT-116): 65 µM (inactive)
- GI50 (CCRF-CEM): 58.7 µM (inactive)
- GI50 (HCT-15): 75.9 µM
- GI50 (UACC-257): 50.4 µM (inactive)
- GI50 (Hs-578T): > 100 µM (inactive)
- GI50 (K562): 50.6 µM (inactive)
- GI50 (PC-3): 25.2 µM (inactive)
- GI50 (MDA-MB-435): 64 µM (inactive)
- GI50 (BT-549): 99.5 µM (inactive)
- GI50 (HCC 2998): > 100 µM (inactive)
- GI50 (NCI-H23): 91.8 µM (inactive)
- GI50 (EKVX): 48.2 µM (inactive)
- GI50 (OVCAR-4): 90.8 µM (inactive)
- GI50 (UO-31): 68.2 µM (inactive)
- GI50 (T47D): 49.4 µM (inactive)
- GI50 (SK-MEL-28): > 100 µM (inactive)
- GI50 (MDA-N): > 100 µM (inactive)
- GI50 (MDA-MB-231): > 100 µM (inactive)
- GI50 (OVCAR-3): 56.8 µM (inactive)
- GI50 (MCF7): 71.9 µM (inactive)
- GI50 (NCI/ADR-RES): 18.3 µM (inactive)
- GI50 (SN12C): > 100 µM (inactive)
- GI50 (TK-10): > 100 µM (inactive)
- GI50 (SK-MEL-5): > 100 µM (inactive)
- GI50 (RXF 393): > 10 µM (inactive)
- GI50 (UACC-62): 50.5 µM (inactive)
- GI50 (MOLT-4): 35.4 µM (inactive)
- GI50 (NCI-H226): 69.7 µM (inactive)
- GI50 (HT-29): 53.7 µM (inactive)
